The values below come from US20260232636A1, “INHIBITORS OF LRRK2” (Vanderbilt University, priority 2023, published 2026).

In general, pIC50 refers to the IC50 on a negative log10 scale, so that one unit is a factor of ten.

SMILES strings stand for the structures. pIC50: −log10 of the molar value.

Assay [1] concerns the target T1, LRRK2 WT (Homo sapiens, UniProt Q5S007). The assay can be described thus: Biochemical LRRK2 LanthaScreen TR-FRET kinase assay, wild type. (In general: TR-FRET usually uses a lanthanide donor and a delayed reading to cut background.)
Protocol: The in-vitro LRRK2 wild type (WT) and G2019S (GS) mutant enzyme activities are assessed for their abilities to phosphorylate a peptide substrate using the LanthaScreen™ (Thermo Fisher) Time-Resolved Fluorescence Energy Transfer (TR-FRET) kinase assay format. The kinase reaction is composed of purified human LRRK2 WT or GS enzymes, a fluorescein labelled peptide substrate (LRRKtide), and ATP. Subsequently, the resulting phosphorylated LRRKtide is recognized by a Terbium-labelled antibody that specifically binds only to the phosphorylated form of LRRKtide. […] In detail, when the phosphorylated LRRKtide is bound to the Terbium (donor) labelled antibody, the FRET signal measured with a 495 nm filter specific to Terbium induces the excitation of the fluorescein (acceptor) of the phosphorylated LRRKtide. Then, this leads to the FRET emission signal measured with a 520 nm filter specific to fluorescein.
The newly synthesized LRRK2 inhibitors are evaluated for their abilities to block phosphorylation of the LRRKtide substrate by WT and GS mutant enzymes. The level of phosphorylation inhibition is proportional to the level of FRET ratio decrease. […] Each assay plate also includes 3 reference controls; (1) full kinase activity control wells containing 1% DMSO vehicle, (2) maximum kinase inhibition control wells containing 1 μM MLi-2, well-known LRRK2 inhibitor, and (3) no enzyme control wells serving as assay background level that should match to the maximum enzyme inhibition level by a 1 M MLi-2 control.
Inhibitors (1 mM stock solution in DMSO) are serially diluted 1:4 into 11 point concentration response curves in DMSO using the Bravo Liquid Handler (Agilent). […] Therefore, the final concentration of 11 point dose response curves of inhibitors ranges from 10 μM to 0.01 nM. For both full enzyme control and no enzyme control wells, 100 nL DMSO is added. For maximum enzyme inhibition wells, 100 nL of 0.1 mM MLi-2 is added.
Next, LRRK2 enzymes, substrate, and ATP are diluted as 2× in 1× kinase buffer (50 mM Tris, pH 8.5, 5 mM MgCl2, 1 mM EGTA, 0.01% BRIJ-35, 2 mM DTT). First, the purified human LRRK2 enzymes are diluted to 6 nM (2×) in a 5 μL volume per well. After adding the WT proteins (Thermo Fisher, cat #PR8604B) and GS mutant proteins (Thermo Fisher, cat #PR8764C) to separate assay plates containing inhibitors/DMSO, the plates are spun down at 100×g for 1 min and placed on a plate shaker with gentle shaking at 50 rpm to incubate enzyme with inhibitors/DMSO at 25° C. for 15 min. The kinase buffer alone (5 μL/well) is added to the no enzyme control wells. Secondly, LRRKtide substrate (Thermo Fisher #PV4901) and ATP (Thermo Fisher #PV3227) are diluted to 2× (0.4 M and 50 μM, respectively) in a 5 μL volume per well. Immediately after the 15 min enzyme incubation, 5 μL of LRRKtide and ATP mixtures are added to entire plates. The plates are spun down at 100×g for 1 min, and covered with a black lid to protect from light. Kinase reaction is allowed at 25° C. for 120 mins with gentle shaking at 50 rpm.
The kinase reaction is immediately stopped by adding 10 μL of 2× TR-FRET detection solution to entire plates. The plates were spun down at 100×g for 1 min, and covered with a black lid to protect from light. The TR-FRET detection reaction was allowed at 25° C. for 30 mins with gentle shaking at 50 rpm.
All ratio data are then normalized to % enzyme activity. Curve fitting and potencies (IC50) of the inhibitors are determined using a four-parameter logistical equation using GraphPad Prism (La Jolla, CA).
Assay [2] addresses T1, LRRK2 WT. The assay can be described thus: Cellular phospho-LRRK2 S935 HTRF assay, WT-HEK293 cells. Particulars: pS935 LRRK2 Cellular Activity Assay; HEK293 cells stably expressing human LRRK2 WT, 2 hr incubation. The format is cell-based. An excerpt:
This method utilizes two antibodies, europium-Cryptate (donor) antibody and d2-Cryptate (acceptor) antibody, specifically binding to total and phospho S935 of LRRK2, respectively. When two fluorophores are in close proximity, i.e. activation of kinase, time-resolved fluorescence energy transfer (TR-FRET) occurs where a light source excites europium donor, the 615 nm emission by europium then excites d2 acceptor. […] All cell culture reagents were purchased from Life Technologies, and phospho-LRRK2 S935 assay reagents were from Perkin Elmer (#6FLRKPEH). Briefly, the day before the assay, the cells (5,000 cells/20 μL/well) are prepared in the plating medium (growth medium without G418). […] The activities of inhibitors at WT and GS mutant are measured in separate cell plates.
For full enzyme control and maximum enzyme inhibition wells, 600 nL of DMSO and 0.2 mM MLi-2 were transferred, respectively. The final 2× compound plate is prepared by adding 60 μL of plating medium to each well. […] Compounds are incubated for 2 hrs in 37° C. humidified incubators.
During compound incubation, 4× lysis buffer and 100× blocking buffer are diluted to 1× with H2O. After 2 hr incubation, treatment medium is removed using an ELx405 Microplate washer (Agilent), and 16 μL of lysis/blocking buffer is immediately added to each well in entire plates. The plates are sealed with a plate seal, and placed on a plate shaker for 30 min at room temperature with shaking at 200 rpm.
During the lysis step, 1× antibody working solutions are prepared by diluting 40× Eu-Cryptate antibody and d2-antibody in detection buffer. After the cell plates are spun at 100×g for 1 min, 4 μL of antibody solutions is added to each well in entire plates. The plates are sealed with a plate seal, and placed on a plate shaker for 4 hrs at room temperature with shaking at 200 rpm.

T1 sequence (Q5S007 whole entry): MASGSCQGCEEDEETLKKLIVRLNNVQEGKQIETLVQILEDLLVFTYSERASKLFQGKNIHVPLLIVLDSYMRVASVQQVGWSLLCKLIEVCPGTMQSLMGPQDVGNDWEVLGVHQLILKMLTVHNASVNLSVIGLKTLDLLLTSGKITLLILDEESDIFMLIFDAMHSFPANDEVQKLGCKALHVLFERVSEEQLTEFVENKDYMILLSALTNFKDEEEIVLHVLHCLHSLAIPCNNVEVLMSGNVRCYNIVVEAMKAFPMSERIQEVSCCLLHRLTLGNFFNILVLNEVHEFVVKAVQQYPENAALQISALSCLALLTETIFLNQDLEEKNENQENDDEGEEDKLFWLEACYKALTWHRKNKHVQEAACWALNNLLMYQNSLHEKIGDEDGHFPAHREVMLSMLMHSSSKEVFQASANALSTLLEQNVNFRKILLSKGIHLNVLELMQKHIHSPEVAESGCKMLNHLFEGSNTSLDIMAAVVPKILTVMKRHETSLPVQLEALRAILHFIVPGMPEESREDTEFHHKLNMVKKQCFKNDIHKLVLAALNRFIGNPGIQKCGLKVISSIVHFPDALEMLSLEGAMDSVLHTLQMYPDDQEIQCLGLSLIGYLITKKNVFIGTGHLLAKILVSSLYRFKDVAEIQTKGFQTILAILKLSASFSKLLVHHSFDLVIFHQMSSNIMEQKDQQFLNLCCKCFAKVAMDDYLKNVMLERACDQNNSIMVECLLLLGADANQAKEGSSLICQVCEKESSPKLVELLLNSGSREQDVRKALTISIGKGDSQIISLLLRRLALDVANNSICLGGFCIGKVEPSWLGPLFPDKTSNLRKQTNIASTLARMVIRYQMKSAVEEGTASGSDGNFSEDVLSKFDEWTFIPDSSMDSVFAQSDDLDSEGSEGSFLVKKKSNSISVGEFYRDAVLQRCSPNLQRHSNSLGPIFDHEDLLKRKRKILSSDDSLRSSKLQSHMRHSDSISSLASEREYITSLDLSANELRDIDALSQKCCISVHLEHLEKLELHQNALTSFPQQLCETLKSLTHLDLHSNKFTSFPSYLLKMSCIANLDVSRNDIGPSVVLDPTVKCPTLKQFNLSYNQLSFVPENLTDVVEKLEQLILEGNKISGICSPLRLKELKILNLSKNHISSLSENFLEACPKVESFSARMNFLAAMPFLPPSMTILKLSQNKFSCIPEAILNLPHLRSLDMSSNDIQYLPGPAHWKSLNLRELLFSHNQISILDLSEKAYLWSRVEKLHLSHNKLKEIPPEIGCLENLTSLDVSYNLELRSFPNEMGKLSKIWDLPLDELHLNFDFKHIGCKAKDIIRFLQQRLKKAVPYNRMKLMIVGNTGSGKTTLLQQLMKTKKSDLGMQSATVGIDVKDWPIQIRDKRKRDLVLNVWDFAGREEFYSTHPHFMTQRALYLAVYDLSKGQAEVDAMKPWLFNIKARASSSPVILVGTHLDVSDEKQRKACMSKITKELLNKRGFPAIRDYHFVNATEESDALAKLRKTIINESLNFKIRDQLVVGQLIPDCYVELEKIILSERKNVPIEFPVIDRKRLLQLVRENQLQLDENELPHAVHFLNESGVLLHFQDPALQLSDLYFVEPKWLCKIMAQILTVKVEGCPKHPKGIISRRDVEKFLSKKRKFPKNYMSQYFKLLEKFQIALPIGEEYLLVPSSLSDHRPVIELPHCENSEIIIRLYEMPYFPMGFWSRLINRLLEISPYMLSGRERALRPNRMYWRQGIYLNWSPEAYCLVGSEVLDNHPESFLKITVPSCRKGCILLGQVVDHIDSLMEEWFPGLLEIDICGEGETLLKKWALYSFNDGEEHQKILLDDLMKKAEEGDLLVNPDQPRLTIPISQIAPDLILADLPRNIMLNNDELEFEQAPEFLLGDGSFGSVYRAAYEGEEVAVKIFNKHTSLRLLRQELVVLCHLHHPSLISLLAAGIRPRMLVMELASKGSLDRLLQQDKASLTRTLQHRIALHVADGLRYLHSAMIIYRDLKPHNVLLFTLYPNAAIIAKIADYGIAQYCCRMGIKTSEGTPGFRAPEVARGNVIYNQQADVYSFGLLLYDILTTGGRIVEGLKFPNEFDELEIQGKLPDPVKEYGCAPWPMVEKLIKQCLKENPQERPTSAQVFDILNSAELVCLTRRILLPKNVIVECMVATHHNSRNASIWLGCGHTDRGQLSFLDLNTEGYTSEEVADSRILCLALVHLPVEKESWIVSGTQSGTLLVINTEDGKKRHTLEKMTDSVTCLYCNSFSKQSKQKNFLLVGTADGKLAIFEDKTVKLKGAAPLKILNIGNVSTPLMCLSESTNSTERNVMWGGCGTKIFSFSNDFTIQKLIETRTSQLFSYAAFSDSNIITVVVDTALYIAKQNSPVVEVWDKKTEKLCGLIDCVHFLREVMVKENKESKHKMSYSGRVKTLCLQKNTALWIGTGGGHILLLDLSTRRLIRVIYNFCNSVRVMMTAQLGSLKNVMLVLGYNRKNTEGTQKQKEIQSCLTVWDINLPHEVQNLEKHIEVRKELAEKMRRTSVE

Take `Cc1cc2cnn(-c3cnn(C)c3)c2cc1C1=C[C@@H]2CNC[C@@H]2C1` (racemic) [Compound 1, (rac)-6-((3aR,6aS)-1,2,3,3a,4,6a-hexahydrocyclopenta[c]pyrrol-5-yl)-5-methyl-1-(1-methyl-1H-pyrazol-4-yl)-1H-indazole]: the pIC50 on LRRK2 WT [1] is 6.95; against LRRK2 WT [2] it was 5.12.
At LRRK2 WT [1], `Cc1cc2cnn(-c3cnn(C)c3)c2cc1C1=C[C@@H]2CN(C(=O)OC(C)(C)C)C[C@@H]2C1` (racemic) [Compound 2, (rac)-tert-butyl (3aR,6aS)-5-(5-methyl-1-(1-methyl-1H-pyrazol-4-yl)-1H-indazol-6-yl)-3,3a,4,6a-tetrahydrocyclopenta[c] pyrrole-2(1H)-carboxylate] showed a pIC50 of 5.64. Further, on LRRK2 WT [2], the “LRRK2 WT IC50” value is “inactive”.
For `Cc1cc2cnn(-c3cnn(C)c3)c2cc1C1=C[C@@H]2CN(C3CCOCC3)C[C@@H]2C1` (racemic) [Compound 3, (rac)-5-methyl-1-(1-methyl-1H-pyrazol-4-yl)-6-((3aR,6aS)-2-(tetrahydro-2H-pyran-4-yl)-1,2,3,3a,4,6a-hexahydrocyclopenta[c]pyrrol-5-yl)-1H-indazole], the pIC50 at LRRK2 WT [1] was 6.15; against LRRK2 WT [2] it was less than 5.00.
For the compound `Cc1cc2cnn(-c3cnn(C)c3)c2cc1[C@H]1C[C@@H]2CN(C3CCCOC3)C[C@@H]2C1` (mixture of isomers) [Compound 11, (rac)-5-methyl-1-(1-methyl-1H-pyrazol-4-yl)-6-((3aR,5s,6aS)-2-(tetrahydro-2H-pyran-3-yl)octahydrocyclopenta[c]pyrrol-5-yl)-1H-indazole], the pIC50 was 6.61 on LRRK2 WT [1] and 5.36 against LRRK2 WT [2].
For `Cc1cc2cnn(-c3cnn(C)c3)c2cc1[C@@H]1C[C@@H]2CN(C3CCCOC3)C[C@@H]2C1` (mixture of isomers) [Compound 12, (rac)-5-methyl-1-(1-methyl-1H-pyrazol-4-yl)-6-((3aR,5r,6aS)-2-(tetrahydro-2H-pyran-3-yl)octahydrocyclopenta[c]pyrrol-5-yl)-1H-indazole], the pIC50 against LRRK2 WT [1] is 6.19. The “LRRK2 WT IC50” value on LRRK2 WT [2] was “inactive”.
As to `COC(=O)N1CCCC(N2C[C@H]3C[C@H](c4cc5c(cnn5-c5cnn(C)c5)cc4C)C[C@H]3C2)C1` (mixture of isomers) [Compound 18, (rac)-methyl 3-((3aR,5s,6aS)-5-(5-methyl-1-(1-methyl-1H-pyrazol-4-yl)-1H-indazol-6-yl)hexahydrocyclopenta[c]pyrrol-2(1H)-yl)piperidine-1-carboxylate], at LRRK2 WT [1], the pIC50 is 5.82. Moreover, the “LRRK2 WT IC50” value at LRRK2 WT [2] was “inactive”.
For `COC(=O)N1CCCC(N2C[C@H]3C[C@@H](c4cc5c(cnn5-c5cnn(C)c5)cc4C)C[C@H]3C2)C1` (mixture of isomers) [Compound 19, (rac)-methyl 3-((3aR,5r,6aS)-5-(5-methyl-1-(1-methyl-1H-pyrazol-4-yl)-1H-indazol-6-yl)hexahydrocyclopenta[c]pyrrol-2(1H)-yl)piperidine-1-carboxylate], in that order: 5.91 and “inactive”.
As to `Cc1cc2cnn(-c3cnn(C)c3)c2cc1[C@H]1C[C@@H]2CN(C(=O)c3snnc3C)C[C@@H]2C1` [Compound 9, (4-methyl-1,2,3-thiadiazol-5-yl)((3aR,5s,6aS)-5-(5-methyl-1-(1-methyl-1H-pyrazol-4-yl)-1H-indazol-6-yl)hexahydrocyclopenta[c]pyrrol-2(1H)-yl)methanone], the pIC50 is 6.81 at LRRK2 WT [1] and 5.07 at LRRK2 WT [2].
As to `Cc1cc2cnn(-c3cnn(C)c3)c2cc1[C@@H]1C[C@@H]2CN(C(=O)c3snnc3C)C[C@@H]2C1` [Compound 10, (4-methyl-1,2,3-thiadiazol-5-yl)((3aR,5r,6aS)-5-(5-methyl-1-(1-methyl-1H-pyrazol-4-yl)-1H-indazol-6-yl)hexahydrocyclopenta[c]pyrrol-2(1H)-yl)methanone], the pIC50 at LRRK2 WT [1] was 6.19. Further, the “LRRK2 WT IC50” value on LRRK2 WT [2] is “inactive”.
